# Results taken from ChEMBL document CHEMBL4190322, “Structure-based development of novel triazoles and related thiazolotriazoles as anticancer agents and Cdc25A/B phosphatase inhibitors. Synthesis, in vitro biological evaluation, molecular docking and in silico ADME-T studies” (Eur J Med Chem, 2017).
# Activity calls are given as the source filed them. The rule behind the calls is not given here.
# How the values were obtained:
# Type in all cases: functional
# SR = test: Growth inhibition of human SR cells at 10 uM after 48 hrs by SRB assay relative to control; details: read-out: GI
# 786-0 = test: Growth inhibition of human 786-0 cells at 10 uM after 48 hrs by SRB assay relative to control
# SF-268 = test: Growth inhibition of human SF268 cells at 10 uM after 48 hrs by SRB assay relative to control
# OVCAR-4 = test: Growth inhibition of human OVCAR4 cells at 10 uM after 48 hrs by SRB assay relative to control; details: for inhibition of growth at 10 µM: OVCAR-4, 48 h, read-out: GI
# HOP-62 = test: Growth inhibition of human HOP62 cells at 10 uM after 48 hrs by SRB assay relative to control; details: HOP-62, 48 h, read-out: GI
# K562 = test: Growth inhibition of human K562 cells at 10 uM after 48 hrs by SRB assay relative to control; details: K562, 48 h, read-out: GI
# LOX IMVI = test: Growth inhibition of human LOXIMVI cells at 10 uM after 48 hrs by SRB assay relative to control; details: read-out: GI
# RPMI-8226 = test: Growth inhibition of human RPMI8226 cells at 10 uM after 48 hrs by SRB assay relative to control; details: RPMI-8226, 48 h, read-out: GI
# U-251 = test: Growth inhibition of human U251 cells at 10 uM after 48 hrs by SRB assay relative to control; details: U-251, 48 h, read-out: GI
# NCI-H322M = test: Growth inhibition of human NCI-H322M cells at 10 uM after 48 hrs by SRB assay relative to control
# MOLT-4 = test: Growth inhibition of human MOLT4 cells at 10 uM after 48 hrs by SRB assay relative to control; details: for inhibition of growth at 10 µM: MOLT-4, 48 h, read-out: GI
# OVCAR-3 = test: Growth inhibition of human OVCAR3 cells at 10 uM after 48 hrs by SRB assay relative to control
# PC-3 = test: Growth inhibition of human PC3 cells at 10 uM after 48 hrs by SRB assay relative to control; details: PC-3, 48 h, read-out: GI
# NCI-H522 = test: Growth inhibition of human NCI-H522 cells at 10 uM after 48 hrs by SRB assay relative to control; details: NCI-H522, 48 h, read-out: GI
# Hs-578T = test: Growth inhibition of human Hs 578T cells at 10 uM after 48 hrs by SRB assay relative to control
# SK-MEL-2 = test: Growth inhibition of human SK-MEL-2 cells at 10 uM after 48 hrs by SRB assay relative to control; details: for inhibition of growth at 10 µM: SK-MEL-2, 48 h, read-out: GI
# UACC-62 = test: Growth inhibition of human UACC62 cells at 10 uM after 48 hrs by SRB assay relative to control
# HCT-116 = test: Growth inhibition of human HCT116 cells at 10 uM after 48 hrs by SRB assay relative to control; details: for inhibition of growth at 10 µM: HCT-116, 48 h, read-out: GI
# KM12 = test: Growth inhibition of human KM12 cells at 10 uM after 48 hrs by SRB assay relative to control; details: KM12, 48 h, read-out: GI
# CCRF-CEM = test: Growth inhibition of human CCRF-CEM cells at 10 uM after 48 hrs by SRB assay relative to control; details: read-out: GI
# UO-31 = test: Growth inhibition of human UO31 cells at 10 uM after 48 hrs by SRB assay relative to control; details: UO-31, 48 h, read-out: GI
# NCI-H226 = test: Growth inhibition of human NCI-H226 cells at 10 uM after 48 hrs by SRB assay relative to control
# NCI-H23 = test: Growth inhibition of human NCI-H23 cells at 10 uM after 48 hrs by SRB assay relative to control; details: NCI-H23, 48 h, read-out: GI
# RXF 393 = test: Growth inhibition of human RXF393 cells at 10 uM after 48 hrs by SRB assay relative to control
# HT-29 = test: Growth inhibition of human HT-29 cells at 10 uM after 48 hrs by SRB assay relative to control
# MDA-MB-468 = test: Growth inhibition of human MDA-MB-468 cells at 10 uM after 48 hrs by SRB assay relative to control
# SK-OV-3 = test: Growth inhibition of human SKOV3 cells at 10 uM after 48 hrs by SRB assay relative to control; details: SK-OV-3, 48 h, read-out: GI
# A549 = test: Growth inhibition of human A549 cells at 10 uM after 48 hrs by SRB assay relative to control; details: for inhibition of growth at 10 µM: A549, 48 h, read-out: GI
# OVCAR-8 = test: Growth inhibition of human OVCAR8 cells at 10 uM after 48 hrs by SRB assay relative to control
# CAKI-1 = test: Growth inhibition of human Caki1 cells at 10 uM after 48 hrs by SRB assay relative to control; details: CAKI-1, 48 h, read-out: GI
# HOP-92 = test: Growth inhibition of human HOP92 cells at 10 uM after 48 hrs by SRB assay relative to control; details: HOP-92, 48 h, read-out: GI
# UACC-257 = test: Growth inhibition of human UACC257 cells at 10 uM after 48 hrs by SRB assay relative to control
# A498 = test: Growth inhibition of human A498 cells at 10 uM after 48 hrs by SRB assay relative to control; details: A498, 48 h, read-out: GI
# MCF7 = test: Growth inhibition of human MCF7 cells at 10 uM after 48 hrs by SRB assay relative to control; details: for inhibition of growth at 10 µM: MCF7, 48 h, read-out: GI
# SK-MEL-5 = test: Growth inhibition of human SK-MEL-5 cells at 10 uM after 48 hrs by SRB assay relative to control; details: for inhibition of growth at 10 µM: SK-MEL-5, 48 h, read-out: GI
# HL-60 = test: Growth inhibition of human HL60 cells at 10 uM after 48 hrs by SRB assay relative to control
# SNB-19 = test: Growth inhibition of human SNB19 cells at 10 uM after 48 hrs by SRB assay relative to control
# Malme-3M = test: Growth inhibition of human MALME-3M cells at 10 uM after 48 hrs by SRB assay relative to control
# SNB-75 = test: Growth inhibition of human SNB75 cells at 10 uM after 48 hrs by SRB assay relative to control; details: SNB-75, 48 h, read-out: GI
# NCI/ADR-RES = test: Growth inhibition of human NCI/ADR-RES cells at 10 uM after 48 hrs by SRB assay relative to control; details: read-out: GI
SMILES,inhibition of growth at 10 µM (SR) [%],growth inhibition (GI) (786-0),inhibition of growth at 10 µM (HOP-62) [%],inhibition of growth at 10 µM (K562) [%],inhibition of growth at 10 µM (LOX IMVI) [%],inhibition of growth at 10 µM (RPMI-8226) [%],inhibition of growth at 10 µM (U-251) [%],inhibition of growth at 10 µM (PC-3) [%],inhibition of growth at 10 µM (NCI-H522) [%],inhibition of growth at 10 µM (KM12) [%],inhibition of growth at 10 µM (CCRF-CEM) [%],inhibition of growth at 10 µM (UO-31) [%],inhibition of growth at 10 µM (NCI-H23) [%],growth inhibition (GI) (RXF 393),growth inhibition (GI) (HT-29),inhibition of growth at 10 µM (SK-OV-3) [%],growth inhibition (GI) (OVCAR-8),inhibition of growth at 10 µM (CAKI-1) [%],inhibition of growth at 10 µM (HOP-92) [%],growth inhibition (GI) (UACC-257),further results
COc1ccc(Cc2nnc3sc(SCC(=O)Nc4ccc(Cl)cc4)nn23)cc1,7.04,inactive,4.5,2.76,8,7.47,4.46,14.8,8.35,5.75,9.02,10.2,9.4,inactive,inactive,1.64,inactive,5.77,20.3,inactive,"growth inhibition (GI) (SF-268): inactive; inhibition of growth at 10 µM (OVCAR-4): 5.49%; growth inhibition (GI) (NCI-H322M): inactive; growth inhibition (GI) (MOLT-4): inactive; growth inhibition (GI) (OVCAR-3): inactive; growth inhibition (GI) (Hs-578T): inactive; growth inhibition (GI) (SK-MEL-2): inactive; growth inhibition (GI) (UACC-62): inactive; growth inhibition (GI) (HCT-116): inactive; growth inhibition (GI) (NCI-H226): inactive; growth inhibition (GI) (MDA-MB-468): inactive; growth inhibition (GI) (A549): inactive; inhibition of growth at 10 µM (A498): 19.6%; inhibition of growth at 10 µM (MCF7): 10%; growth inhibition (GI) (SK-MEL-5): inactive; growth inhibition (GI) (HL-60): inactive; inhibition of growth at 10 µM (SNB-19; SNB-19, 48 h, read-out: GI): 10.4%; growth inhibition (GI) (Malme-3M): inactive; inhibition of growth at 10 µM (SNB-75): 20.2%; inhibition of growth at 10 µM (NCI/ADR-RES): 2.54%"
COc1ccc(Cc2nnc3sc(SCC(=O)c4ccc(Cl)cc4)nn23)cc1,13.2,inactive,7.5,10,9,8.67,8.78,25.8,17.7,5.4,12.2,22.3,10.7,inactive,inactive,11.2,inactive,17.5,32,inactive,"inhibition of growth at 10 µM (SF-268; SF-268, 48 h, read-out: GI): 5%; inhibition of growth at 10 µM (OVCAR-4): 2.26%; inhibition of growth at 10 µM (NCI-H322M; read-out: GI): 6.27%; inhibition of growth at 10 µM (MOLT-4): 7.83%; inhibition of growth at 10 µM (OVCAR-3; OVCAR-3, 48 h, read-out: GI): 3.88%; inhibition of growth at 10 µM (Hs-578T; read-out: GI): 2.07%; inhibition of growth at 10 µM (SK-MEL-2): 10%; inhibition of growth at 10 µM (UACC-62; UACC-62, 48 h, read-out: GI): 1.72%; inhibition of growth at 10 µM (HCT-116): 4%; inhibition of growth at 10 µM (NCI-H226; NCI-H226, 48 h, read-out: GI): 2%; growth inhibition (GI) (MDA-MB-468): inactive; inhibition of growth at 10 µM (A549): 1.3%; inhibition of growth at 10 µM (A498): 35.4%; inhibition of growth at 10 µM (MCF7): 6.24%; inhibition of growth at 10 µM (SK-MEL-5): 2.05%; growth inhibition (GI) (HL-60): inactive; growth inhibition (GI) (SNB-19): inactive; growth inhibition (GI) (Malme-3M): inactive; inhibition of growth at 10 µM (SNB-75): 21.8%; inhibition of growth at 10 µM (NCI/ADR-RES): 5.12%"
CCSc1nnc(Cc2ccc(OC)cc2)n1-c1ccc(C)cc1,8.17,inactive,6,20.2,3.04,13.5,1.35,14.3,14.6,6.34,16.7,14.2,4.3,inactive,inactive,6.45,inactive,4.82,31.6,inactive,"growth inhibition (GI) (SF-268): inactive; growth inhibition (GI) (OVCAR-4): inactive; growth inhibition (GI) (NCI-H322M): inactive; inhibition of growth at 10 µM (MOLT-4): 17.7%; growth inhibition (GI) (OVCAR-3): inactive; growth inhibition (GI) (Hs-578T): inactive; inhibition of growth at 10 µM (SK-MEL-2): 1.9%; growth inhibition (GI) (UACC-62): inactive; inhibition of growth at 10 µM (HCT-116): 4.52%; growth inhibition (GI) (NCI-H226): inactive; inhibition of growth at 10 µM (MDA-MB-468; MDA-MB-468, 48 h, read-out: GI): 2.5%; inhibition of growth at 10 µM (A549): 3.38%; inhibition of growth at 10 µM (A498): 6.56%; growth inhibition (GI) (MCF7): inactive; inhibition of growth at 10 µM (SK-MEL-5): 2%; growth inhibition (GI) (HL-60): inactive; growth inhibition (GI) (SNB-19): inactive; growth inhibition (GI) (Malme-3M): inactive; inhibition of growth at 10 µM (SNB-75): 4%; inhibition of growth at 10 µM (NCI/ADR-RES): 10.1%"
